# From BindingDB's records for aid1799745 (Csar, 2012)
# Target: T1, UDP-3-O-acyl-N-acetylglucosamine deacetylase (Aquifex aeolicus (strain VF5), UniProt O67648)
# T1 sequence (O67648 whole entry): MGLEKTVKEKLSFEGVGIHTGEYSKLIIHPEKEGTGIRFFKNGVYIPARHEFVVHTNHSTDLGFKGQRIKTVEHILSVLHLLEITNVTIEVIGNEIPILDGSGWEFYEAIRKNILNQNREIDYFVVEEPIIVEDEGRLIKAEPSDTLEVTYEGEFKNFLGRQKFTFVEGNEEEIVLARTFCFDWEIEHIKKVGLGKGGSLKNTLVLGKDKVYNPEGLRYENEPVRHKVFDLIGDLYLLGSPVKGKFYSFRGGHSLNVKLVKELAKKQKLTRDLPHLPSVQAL
# Assay: Thermofluor
# Conditions: pH 7; 25 °C
row,Kd [µM],SMILES
1,> 100,CC1(CNC(=O)c2ccc(-c3ccccc3)cc2)NC(=O)NC1=O (stereo unspecified) [CS21]
2,93.4,CC1(CNC(=O)c2ccc(C#Cc3ccccc3)cc2)NC(=O)NC1=O (stereo unspecified) [CS22]
3,> 100,CC1(CNC(=O)c2ccc(-c3ccc(Br)cc3)cc2)NC(=O)NC1=O (stereo unspecified) [CS23]
4,63.9,CC1(CNC(=O)c2ccc(C#CC#Cc3ccccc3)cc2)NC(=O)NC1=O (stereo unspecified) [CS243]
5,0.393,NC[C@H](NC(=O)c1ccc(-c2ccccc2)cc1)C(=O)NO [CS249]
6,0.19,NC[C@H](NC(=O)c1ccc(-c2ccc(Br)cc2)cc1)C(=O)NO [CS250]
7,0.059,NC[C@H](NC(=O)c1ccc(C#CC#Cc2ccccc2)cc1)C(=O)NO [CS252]
8,> 100,C[C@@H](O)[C@H](NC(=O)c1ccc(-c2ccccc2)cc1)C(=O)NCC1(C)NC(=O)NC1=O (stereo partly specified) [CS253]
9,> 100,C[C@@H](O)[C@H](NC(=O)c1ccc(C#Cc2ccccc2)cc1)C(=O)NCC1(C)NC(=O)NC1=O (stereo partly specified) [CS254]
10,> 100,C[C@@H](O)[C@H](NC(=O)c1ccc(C#CC#Cc2ccccc2)cc1)C(=O)NCC1(C)NC(=O)NC1=O (stereo partly specified) [CS255]
11,> 100,C[C@@H](O)[C@H](NC(=O)c1ccc(-c2ccc(Br)cc2)cc1)C(=O)NCC1(C)NC(=O)NC1=O (stereo partly specified) [CS256]
12,0.008,C[C@@H](O)[C@H](NC(=O)c1ccc(C#CC#Cc2ccccc2)cc1)C(=O)NO [CS257]
13,0.033,C[C@@H](O)[C@H](NC(=O)c1ccc(-c2ccc(Br)cc2)cc1)C(=O)NO [CS258]
14,0.02,C[C@@H](O)[C@H](NC(=O)c1ccc(C#Cc2ccccc2)cc1)C(=O)NO [CS259]
15,0.075,C[C@@H](O)[C@H](NC(=O)c1ccc(-c2ccccc2)cc1)C(=O)NO [CS263]
16,> 100,CC1(CNC(=O)[C@H](CN)NC(=O)c2ccc(-c3ccccc3)cc2)NC(=O)NC1=O (stereo partly specified) [CS264]
17,> 100,CC1(CNC(=O)[C@H](CN)NC(=O)c2ccc(C#CC#Cc3ccccc3)cc2)NC(=O)NC1=O (stereo partly specified) [CS265]
18,> 100,CC1(CNC(=O)[C@H](CN)NC(=O)c2ccc(C#Cc3ccccc3)cc2)NC(=O)NC1=O (stereo partly specified) [CS266]
19,> 100,CC1(CNC(=O)[C@H](CN)NC(=O)c2ccc(-c3ccc(Br)cc3)cc2)NC(=O)NC1=O (stereo partly specified) [CS267]
20,7.25,O=C(NO)[C@H]1COC(c2ccc([N+](=O)[O-])cc2)=N1 [CS268]
21,> 100,O=C(NO)[C@H]1COC(c2ccc(OCc3cccc(F)c3)c(OC(F)(F)F)c2)=N1 [CS269]
22,3.8,O=C(NO)[C@H]1COC(c2ccc(OC(F)(F)F)c(Cl)c2)=N1 [CS270]
23,1.03,O=C(NO)[C@H]1COC(c2ccc(F)c(C(F)(F)F)c2)=N1 [CS271]
24,> 100,CN(C)c1ccc(C2=N[C@@H](C(=O)NO)CO2)cc1 [CS273]
25,15.6,CCCc1ccc(-c2ccc(C3=N[C@@H](C(=O)NO)CO3)cc2)cc1 [CS274]
26,21.5,O=C(NO)c1csc(-c2ccc(OC(F)(F)F)c(Cl)c2)n1 [CS275]
27,28.5,O=C(NO)C1=C[SiH2]C(c2ccc(F)cc2)=N1 (stereo unspecified) [CS276]
28,2.91,O=C(NO)c1csc(-c2ccc(F)c(C(F)(F)F)c2)n1 [CS277]
29,28.2,CN(C)c1ccc(-c2nc(C(=O)NO)cs2)cc1 [CS278]
30,11.1,O=C(NO)[C@H]1COC(c2ccc(F)cc2)=N1 [CS279]

row,SMILES,Kd [µM]
1,O=C(NO)[C@H]1COC(c2cc3cc(F)ccc3[nH]2)=N1 [CS272],2.5
